Assay [1] concerns Meloidogyne incognita. Briefly: Meloidogyne incognita test (MELGIN): sand, salad seeds, gall formation after 14 days. It counts as in vivo. Particulars: application rate 20 ppm, salad seedlings in sand. The procedure: Solvent: 125.0 parts by weight of acetone To produce a suitable preparation of active compound, 1 part by weight of active compound is mixed with the stated amount of solvent, and the concentrate is diluted with water to the desired concentration. Vessels are filled with sand, a solution of the active ingredient, a suspension containing eggs and larvae of the southern root-knot nematode (Meloidogyne incognita) and salad seeds. The salad seeds germinate and the seedlings grow. Galls develop in the roots. After 14 days the nematicidal activity is determined on the basis of the percentage of gall formation. 100% means that no galls were found; 0% means that the number of galls found on the roots of the treated plants was equal to that in untreated control plants.

In assay [2] the test system is Meloidogyne incognita. Briefly: Meloidogyne incognita test: compound solution poured into pots with soil (loamy sand), salad seeds, gall formation after 21 days. It counts as in vivo. Particulars: salad in soil. Here is the method:
Solvent: 7 parts by weight of dimethylformamide Emulsifier: 2.5 parts by weight of alkylarylpolyglycolether To produce a suitable preparation of active compound, 1 part by weight of active compound is mixed with the stated amount of solvent and emulsifier and is diluted with water to the desired concentration. In the calculation of the concentration the soil volume has to be included. […] Further test concentrations are prepared by dilution with water. The compound solution is poured into pots filled with soil (loamy sand). A suspension containing eggs and larvae of the southern root-knot nematode (Meloidogyne incognita) is added, salad seeds are spread on the soil surface and covered with quartz sand. The salad seeds germinate and the seedlings grow. Galls develop on the roots. After 21 days the nematicidal activity is determined on the basis of the percentage of gall formation. 100% means no galls were found; 0% means the number of galls found on the roots of the treated plants was equal to that in untreated control plants.

Consider `COc1ccc(Cl)c(S(=O)(=O)NC(=O)c2cn3cc(C(F)(F)F)sc3n2)c1` [Example I-1-1, N-[(2-chloro-5-methoxyphenyl)sulfonyl]-2-(trifluoromethyl)imidazo[2,1-b][1,3]thiazole-6-carboxamide], for which the figures for the “nematicidal activity on the basis of the percentage of gall formation (100% = no galls)” value in assay [1] and in assay [2] (application rate 2 ppm) were 100% and 95%, respectively.
`O=C(NS(=O)(=O)c1ccccc1Cl)c1cn2cc(C(F)(F)F)sc2n1` [Example I-1-3]: the “nematicidal activity on the basis of the percentage of gall formation (100% = no galls)” value worked out at 100% in assay [1] and 95% in assay [2] (application rate 2 ppm).
Regarding `O=C(NS(=O)(=O)c1cc(C(F)(F)F)ccc1Br)c1cn2cc(C(F)(F)F)sc2n1` [Example I-1-5], the “nematicidal activity on the basis of the percentage of gall formation (100% = no galls)” value in assay [1] is 100%; in assay [2] (application rate 4 ppm), 90%.
In the same order, the values of `Cc1ccc(Cl)cc1S(=O)(=O)NC(=O)c1cn2cc(C(F)(F)F)sc2n1` [Example I-1-8] are 100% and 95%.
Consider `Cc1ccc(C)c(S(=O)(=O)NC(=O)c2cn3cc(C(F)(F)F)sc3n2)c1` [Example I-1-9], for which the “nematicidal activity on the basis of the percentage of gall formation (100% = no galls)” value in assay [1] and in assay [2] (application rate 8 ppm) was 100% each time.
Turning to `O=C(NS(=O)(=O)c1c(Cl)cccc1Cl)c1cn2cc(C(F)(F)F)sc2n1` [Example I-1-10], the “nematicidal activity on the basis of the percentage of gall formation (100% = no galls)” value in assay [1] amounted to 100%; in assay [2] (application rate 8 ppm), 98%.
As to `O=C(NS(=O)(=O)c1cc2c(cc1Cl)OC(F)(F)O2)c1cn2cc(C(F)(F)F)sc2n1` [Example I-1-12], the “nematicidal activity on the basis of the percentage of gall formation (100% = no galls)” value in assay [1] turned out to be 100%; in assay [2] (application rate 8 ppm) it was 95%.
For the compound `COc1ccc(F)c(S(=O)(=O)NC(=O)c2cn3cc(C(F)(F)F)sc3n2)c1` [Example I-1-27], the “nematicidal activity on the basis of the percentage of gall formation (100% = no galls)” value in assay [1] was 100%; in assay [2] (application rate 2 ppm) it was 80%.
For the compound `O=C(NS(=O)(=O)c1ccccc1Cl)c1cn2cc(C(F)(F)C(F)(F)F)sc2n1` [Example I-1-142], the “nematicidal activity on the basis of the percentage of gall formation (100% = no galls)” value in assay [1] is on record as 100%; in assay [2] (application rate 4 ppm), 80%.
Turning to `O=C(NS(=O)(=O)c1c(Cl)cccc1Cl)c1cn2cc(C(F)(F)C(F)(F)F)sc2n1` [Example I-1-146], the “nematicidal activity on the basis of the percentage of gall formation (100% = no galls)” value in assay [1] is 100%; in assay [2] (application rate 8 ppm), 90%.
Turning to `COc1ccc(Cl)c(S(=O)(=O)NC(=O)c2cn3cc(C(F)(F)C(F)(F)F)sc3n2)c1` [Example I-1-147], the “nematicidal activity on the basis of the percentage of gall formation (100% = no galls)” value in assay [1] was 100%; in assay [2] (application rate 8 ppm) it was 85%.
With `Cc1c(C(F)(F)F)sc2nc(C(=O)NS(=O)(=O)c3ccccc3Cl)cn12` [Example I-1-154], the “nematicidal activity on the basis of the percentage of gall formation (100% = no galls)” value in assay [1] was 90%; in assay [2] (application rate 4 ppm), 99%.
On to `O=C(NS(=O)(=O)c1cc(Cl)ccc1Br)c1cn2cc(C(F)(F)F)sc2n1` [Example I-1-205], for which the “nematicidal activity on the basis of the percentage of gall formation (100% = no galls)” value in assay [1] came to 100%; in assay [2] (application rate 4 ppm) it was 95%.
As to `COc1ccc(Br)c(S(=O)(=O)NC(=O)c2cn3cc(C(F)(F)F)sc3n2)c1` [Example I-1-206], the “nematicidal activity on the basis of the percentage of gall formation (100% = no galls)” value in assay [1] and in assay [2] (application rate 4 ppm) was 100% each time.
`CCCOc1ccc(Cl)c(S(=O)(=O)NC(=O)c2cn3cc(C(F)(F)F)sc3n2)c1` [Example I-1-207]: the “nematicidal activity on the basis of the percentage of gall formation (100% = no galls)” value in assay [1] was 100%; in assay [2] (application rate 4 ppm) it was 95%.
On to `CC(C)Oc1ccc(Cl)c(S(=O)(=O)NC(=O)c2cn3cc(C(F)(F)F)sc3n2)c1` [Example I-1-208], for which the “nematicidal activity on the basis of the percentage of gall formation (100% = no galls)” value in assay [1] worked out at 100%; in assay [2] (application rate 1 ppm) it was 90%.
As to `O=C(NS(=O)(=O)c1cc(Br)ccc1Cl)c1cn2cc(C(F)(F)F)sc2n1` [Example I-1-209], the entries for the “nematicidal activity on the basis of the percentage of gall formation (100% = no galls)” value in assay [1] and in assay [2] (application rate 4 ppm) were 100% and 90%, respectively.
`O=C(NS(=O)(=O)c1c(F)cccc1F)c1cn2cc(C(F)(F)C(F)(F)F)sc2n1` [Example I-1-222]: the “nematicidal activity on the basis of the percentage of gall formation (100% = no galls)” value was 100% in assay [1] and 90% in assay [2] (application rate 8 ppm).
`O=C(NS(=O)(=O)c1cc(C(F)(F)F)ccc1Br)c1cn2cc(C(F)(F)C(F)(F)F)sc2n1` [Example I-1-223]: the “nematicidal activity on the basis of the percentage of gall formation (100% = no galls)” value was found to be 100% in assay [1] and 80% in assay [2] (application rate 4 ppm).
Consider `Cc1ccc(C)c(S(=O)(=O)NC(=O)c2cn3cc(C(F)(F)C(F)(F)F)sc3n2)c1` [Example I-1-225], for which the “nematicidal activity on the basis of the percentage of gall formation (100% = no galls)” value in assay [1] came out at 90%; in assay [2] (application rate 8 ppm), 80%.
On the same counts, the results for `O=C(NS(=O)(=O)c1ccccc1F)c1cn2cc(C(F)(F)C(F)(F)F)sc2n1` [Example I-1-226] are 100% and 80%.
On the same counts, the results for `O=C(NS(=O)(=O)c1ccccc1Br)c1cn2cc(C(F)(F)C(F)(F)F)sc2n1` [Example I-1-227] are 100% and 100%.
In the case of `COc1ccc(Br)c(S(=O)(=O)NC(=O)c2cn3cc(C(F)(F)C(F)(F)F)sc3n2)c1` [Example I-1-243], the “nematicidal activity on the basis of the percentage of gall formation (100% = no galls)” value in assay [1] is 100%; in assay [2] (application rate 8 ppm) it was 95%.
In the case of `COc1ccc(Cl)c(S(=O)(=O)NC(=O)c2cn3c(C)c(C(F)(F)C(F)(F)F)sc3n2)c1` [Example I-1-251], the figures for the “nematicidal activity on the basis of the percentage of gall formation (100% = no galls)” value in assay [1] and in assay [2] (application rate 8 ppm) were 100% and 98%, respectively.
In the same order, the values of `Cc1c(C(F)(F)C(F)(F)F)sc2nc(C(=O)NS(=O)(=O)c3c(F)cccc3F)cn12` [Example I-1-252] are 90% and 95%.
As to `Cc1c(Cl)ccc(S(=O)(=O)NC(=O)c2cn3cc(C(F)(F)F)sc3n2)c1C` [Example I-1-307], the “nematicidal activity on the basis of the percentage of gall formation (100% = no galls)” value in assay [1] came out at 100%.
Still for that read-out and setting: for `CSc1ccc(Cl)c(S(=O)(=O)NC(=O)c2cn3cc(C(F)(F)F)sc3n2)c1` [Example I-1-308] the value was 100%.
Same read-out and setting: under `CCc1ccc(Cl)cc1S(=O)(=O)NC(=O)c1cn2cc(C(F)(F)F)sc2n1` [Example I-1-309] stands 100%; under `N#Cc1ccc(Cl)c(S(=O)(=O)NC(=O)c2cn3cc(C(F)(F)F)sc3n2)c1` [Example I-1-310], 90%; under `O=C(NS(=O)(=O)c1cc(Br)ccc1Br)c1cn2cc(C(F)(F)F)sc2n1` [Example I-1-312], 100%.
Still for that read-out and setting: under `CCCOc1ccc(Cl)cc1S(=O)(=O)NC(=O)c1cn2cc(C(F)(F)F)sc2n1` [Example I-1-313] stands 100%; under `Cc1ccc(OC(F)F)c(S(=O)(=O)NC(=O)c2cn3cc(C(F)(F)F)sc3n2)c1` [Example I-1-314], 90%; under `O=C(NS(=O)(=O)c1ccccc1Cl)c1nc2sc(C(F)(F)F)cn2c1Br` [Example I-3-1], 100%.
Take `COc1ccc(Cl)c(S(=O)(=O)NC(=O)c2nc3sc(C(F)(F)F)cn3c2Br)c1` [Example I-3-2]: the “nematicidal activity on the basis of the percentage of gall formation (100% = no galls)” value in assay [1] was found to be 100%.
The same measure, in the same setting: for `O=C(NS(=O)(=O)c1ccccc1Cl)c1nc2sc(C(F)(F)F)cn2c1Cl` [Example I-3-3] the value was 100%; for `COc1ccc(Cl)c(S(=O)(=O)NC(=O)c2nc3sc(C(F)(F)F)cn3c2Cl)c1` [Example I-3-4], 100%; for `O=C(NS(=O)(=O)c1ccccc1Cl)c1nc2sc(C(F)(F)F)cn2c1I` [Example I-3-5], 100%.
The same measure, in the same setting: for `COc1ccc(Cl)c(S(=O)(=O)NC(=O)c2nc3sc(C(F)(F)F)cn3c2I)c1` [Example I-3-6] the value was 100%.

For the origin of these results see patent US9512144B2, “Imidazothiazole sufonamides as nematicides” (BAYER CROPSCIENCE AKTIENGESELLSCHAFT, priority 2013, dated 2016).
